US20240092756A1, “METHODS AND COMPOSITION FOR KRAS MODIFICATIONS” (2692372 ONTARIO, INC., priority 2020, published 2024)

Tests used:
[1] = molecular target: KRAS G12C (Homo sapiens, UniProt P01116, G12C); assay: SOS1-catalyzed KRAS coupled nucleotide exchange assay (Alpha technology); format: biochemical; set-up: His; key: A: KRAS G12C bound and modulated; details: inhibition of SOS1 mediated KRAS nucleotide exchange
Protocol: Method I: The inhibition of the SOS1-catalyzed nucleotide exchange activity of KRAS (e.g., KRAS G12C/C118A) was measured using Alpha (Amplified Luminescent Proximity Homogeneous Assay) technology. 20 nM GDP-bound human KRAS (G12C/C118A) protein was incubated with two-fold serially-diluted test compound or DMSO for 5 minutes at ambient temperature in reaction buffer (25 mM HEPES, pH 7.4; 10 mM MgCl2; 0.01% Triton X-100). For all subsequent steps, DTT was added to the reaction buffer at a final concentration of 1 mM. Next, GTP and SOS-1 were added in DTT-reaction buffer at final concentrations of 1.25 mM or 500 nM, respectively, and incubated at RT for 30 minutes. Finally, c-RAF RBD (50 nM final), Alpha glutathione donor beads (PerkinElmer; 20 μg/mL final), and AlphaLISAnickel chelate acceptor beads (PerkinElmer; 20 μg/mL final), all diluted in DTT-reaction buffer, were added. The reaction mixture was incubated at RT for 5 min, and then the plates were read on an EnVision® Multilabel Reader using the AlphaScreen protocol. Luminescence signal was measured at 570 nm following a 180 ms excitation at 680 nm. Signal intensity corresponded with the association of c-RAF RBD with GTP-bound KRAS G12C/C118A and was normalized to DMSO control.
Method II: Inhibition of the SOS1-catalyzed nucleotide exchange activity of KRAS^G12C was measured using Alpha technology (PerkinElmer). 50 nM GDP-bound human KRAS^G12C protein was incubated with serially-diluted compound or DMSO for 2 hrs at RT in RBD-RAS binding buffer (BPSBioscience). 1 mM GTP and 500 nM SOS-1 were added to the reaction mixture and incubated at RT for 30 min. GST-tagged RBD-cRAF was then added to the reaction mixture at a final concentration of 2.5 nM and incubated at RT for 30 min. Finally, Alpha Glutathione acceptor beads and Nickel chelate donor beads (PerkinElmer) were diluted to 1:500 and 1:250, respectively, and added to the reaction mixture. The final reaction was incubated at RT for 30 min. Plates were read on a TECAN SPARK® Multiplate Reader. The luminescence signal was measured at 615 nm following excitation at 680 nm. Signal intensity was normalized to DMSO control.

[2] = molecular target: KRAS G12C Lite (SEQ ID NO:3) (Homo sapiens, UniProt P01116, C118S/C51S/C80S/G12C/S136P/S39C); assay: Intact mass analysis (LC-MS) of covalent modification, KRAS G12C Lite; format: binding; set-up: key to KRAS Lite Modification: a: KRAS Lite modified; details: intact mass spectrometry; covalent modification of KRAS G12C Lite
Protocol: (§1) The covalent modification of the proteins with the compounds were evaluated using intact mass analysis by liquid chromatography-mass spectrometry instrument (LC-MS/MS).
(§2) The reaction solution (20 μL) was prepared in 96-well plate and contained the protein (2 μM), the compound (100 μM), HEPES buffer (20 mM, pH 8), 2% DMSO, 2% glycerol, and 150 mM NaCl. The reaction was allowed to proceed for 24 h at 25° C. The reaction solution (1 μL) was injected into the LC/MS/MS without any further sample preparation.
(§3) The LC-MS/MS instrument comprises of a Waters G2-XS quadrupole-time of flight (QTof) mass spectrometer and a Waters Acuity I-class Ultra-High Performance Liquid Chromatography (UPLC) system. The I-class UPLC system includes a binary solvent manager (BSM), and an Acquity sample manager (SM). The mobile phase consisted of: A) 0.1% (v/v) formic acid in MilliQ water; B) 0.1% (v/v) formic acid acetonitrile. Gradients were run over 5 min and proceeded as follows: A:B, 85:15, 0.0-0.7 min, 85:15→15:85, 0.7-1.5 min, 10:90, 1.5-4 min, 10:90→85:15, 4-4.5 min, 85:15, 4.5-5 min. The analytical column was a Waters BEH C4 column 1.7 μm (50×1 mm) column with pore sizes of 300 Å. The TOF MS data was collected in positive ion mode (m/z of 400-2000 Da) using MassLynx software (Waters).
(§4) The spectral deconvolution was performed using UNIFI software (Waters). The added mass of the protein upon covalent modification to cysteine residues were specified. Multiple modification of up to 8 cysteine was allowed. All the adducts with signal intensities of <2% of the base peak were ignored. The % modification was calculated as the adduct signal intensity over the total intensities of the protein peaks and the adducts.

[3] = tested on: phospho-ERK1/2 in MIA PaCa-2 cells (express KRAS G12C); assay: ERK1/2 phosphorylation in MIA PaCa-2 cells; format: cell-based, human; set-up: key: X: KRAS G12C bound and modulated in cells
Protocol: MIA PaCa-2 cells were cultured in Dulbecco's Modified Eagle's Medium (Wisent) supplemented with 10% FBS, 2.5% horse serum, and 1% penicillin/streptomycin. Cells were seeded in 6-well plates at 500,000 cells/well and incubated at 37° C., 5% CO2 for 16 hours. Cells were treated with the indicated concentrations of compound or DMSO alone and incubated at 37° C., 5% CO2 for 6 or 24 hours. Conditioned media was discarded, and adherent cells were washed with PBS before they were scraped. Cell suspensions were centrifugated at 2,000 RPM for 5 minutes at 4° C. and supernatants were discarded. Cell pellets were resuspended with 1×RIPA buffer (Millipore) and incubated on ice for 15 minutes. Protein lysates were extracted by centrifugating at 20,000 RPM for 20 minutes at 4° C. Proteins were separated and total KRas protein levels were quantified by Simple Western Immunoassay (ProteinSimple) using the 2-40 kDa Separation Module for Jess according to the manufacturer's protocol, using a protein concentration of 0.5 μg/μl and antibodies targeting KRas (clone #4F3, Sigma) and GAPDH (clone #14C10, Cell Signaling) diluted to 1:10 and 1:1600, respectively, where the latter was used as a loading control. A 3:1 ratio of rabbit to mouse HRP-conjugated secondary antibodies was used for detection. KRas protein levels were quantified relative to GAPDH loading levels and subsequently normalized to the DMSO control. Phosphorylated ERK1/2 levels were quantified by Simple Western Immunoassay (ProteinSimple) using the Protein Normalization Assay Module for Jess according to the manufacturer's protocol using a protein concentration of 0.5 μg/μl and an antibody targeting phosphor-ERK1/2 (clone #D13.14.4E, Cell Signalling) diluted to 1:10. Phosphorylated ERK1/2 levels were normalized to the Jess Protein Normalization Reagent loading control and subsequently to the DMSO control.
MIA PaCa-2 cells were cultured in Dulbecco's Modified Eagle's Medium (Wisent) supplemented with 10% FBS, 2.5% horse serum, and 1% penicillin/streptomycin. Cells were seeded in 96-well plates at a density of 25,000 cells/well and incubated at 37° C., 5% CO2 for 24 hours. The next day, cells were starved in cell culture media containing 1% FBS only at 37° C., 5% CO2 for 16 hours. Following starvation, serially-diluted compounds or DMSO alone were added to cells and incubated at 37° C., 5% CO2 for 1 or 3 hours. Prior to cell lysis, 25 ng/ml human epidermal growth factor (hEGF) (Sigma) was added to the cells and incubated at 37° C., 5% CO2 for 10 minutes. Conditioned media was discarded, and adherent cells lysed and basal ERK1/2 phosphorylation levels were measured using the Phospho-ERK (Thr202/Tyr204) Cellular HTRF kit (Perkin Elmer) according to the manufacturer's protocol. The fluorescent signal of the acceptor antibody at a wavelength of 665 nm was normalized to that of the donor antibody at 620 nm. HTRF ratios were plotted and relative IC50 values were obtained using Prism (GraphPad).

[4] = molecular target: T1, KRAS G12C (SEQ ID NO:1 or SEQ ID NO:2) (Homo sapiens, UniProt P01116, G12C); assay: Intact mass analysis (LC-MS) of covalent modification, KRAS G12C; format: binding; set-up: key to KRAS G12C Modification: b: KRAS G12C modified; details: intact mass spectrometry; covalent modification of KRAS G12C FL
T1 construct: purchased
Protocol: as §1, §2, §3, §4

| SMILES | KRAS-SOS1 Nucleotide Exchange [1] | KRAS Lite Modification [2] | pERK - MIA PaCa-2 - (6 hours, 5 uM) [3] | KRAS G12C Modification [4] |
| --- | --- | --- | --- | --- |
| Cc1ccnc(C(C)C)c1-n1c(=O)nc(N2CCN(S(=O)(=O)c3c(F)c(F)c(F)c(F)c3OC(F)F)C[C@@H]2C)c2cc(F)c(-c3c(O)cccc3F)nc21 (single isomer, unassigned) [Compound 17A] | A | a | X | b |
| Cc1ccnc(C(C)C)c1-n1c(=O)nc(N2CCN(S(=O)(=O)c3c(F)c(F)c(F)c(F)c3OC(F)F)C[C@@H]2C)c2cc(F)c(-c3c(O)cccc3F)nc21 (single isomer, unassigned) [Compound 18A] | A | a | X | b |
| Cc1ccnc(C(C)C)c1-n1c(=O)nc(N2CCN(S(=O)(=O)c3c(F)c(F)c(F)c(F)c3F)C[C@@H]2C)c2cc(F)c(Cl)nc21 [Compound 2A, 7-chloro-6-fluoro-1-(2-isopropyl-4-methylpyridin-3-yl)-4-((S)-2-methyl-4-((perfluorophenyl)sulfonyl)piperazin-1-yl)pyrido[2,3-d]pyrimidin-2(1H)-one] | A | a | – | b |
| Cc1ccnc(C(C)C)c1-n1c(=O)nc(NS(=O)(=O)c2c(F)c(F)c(F)c(F)c2F)c2cc(F)c(Cl)nc21 [Compound 4A, N-(7-chloro-6-fluoro-1-(2-isopropyl-4-methylpyridin-3-yl)-2-oxo-1,2-dihydropyrido[2,3-d]pyrimidin-4-yl)-2,3,4,5,6-pentafluorobenzenesulfonamide] | A | a | X | – |
| COc1c(F)c(F)c(F)c(F)c1S(=O)(=O)N1CCN(c2nc(=O)n(-c3c(C)ccnc3C(C)C)c3nc(-c4c(O)cccc4F)c(F)cc23)[C@@H](C)C1 [Compound 5A, 6-fluoro-7-(2-fluoro-6-hydroxyphenyl)-1-(2-isopropyl-4-methylpyridin-3-yl)-4-((S)-2-methyl-4-((2,3,4,5-tetrafluoro-6-methoxyphenyl)sulfonyl)piperazin-1-yl)pyrido[2,3-d]pyrimidin-2(1H)-one] | A | – | X | b |
| Cc1ccnc(C(C)C)c1-n1c(=O)nc(N2CCN(S(=O)(=O)c3c(F)c(F)c(F)c(F)c3OC(F)F)C[C@@H]2C)c2cc(F)c(-c3c(O)cccc3F)nc21 [Compound 16A, 4-((S)-4-((2-(difluoromethoxy)-3,4,5,6-tetrafluorophenyl)sulfonyl)-2-methylpiperazin-1-yl)-6-fluoro-7-(2-fluoro-6-hydroxyphenyl)-1-(2-isopropyl-4-methylpyridin-3-yl) pyrido[2,3-d]pyrimidin-2(1H)-one] | A | a | – | b |
| Cc1cccc(C)c1-c1ccc2cc(CNS(=O)(=O)c3c(F)c(F)c(F)c(F)c3F)cnc2c1 [Compound 19A, N-[[7-(2,6-dimethylphenyl)-3-quinolyl]methyl]-2,3,4,5,6-pentafluoro-benzenesulfonamide] | – | a | X | b |
| O=C(COc1ccc(Cl)cc1Cl)NC1CN(S(=O)(=O)c2c(F)c(F)c(F)c(F)c2F)C1 [Compound 50A, 2-(2,4-dichlorophenoxy)-N-(1-((perfluorophenyl)sulfonyl)azetidin-3-yl)acetamide] | – | – | – | b |
| O=C(COc1ccc(Cl)cc1Cl)N1CCN(S(=O)(=O)c2c(F)c(F)c(F)c(F)c2C(F)(F)F)CC1 [Compound 51A, 2-(2,4-dichlorophenoxy)-1-(4-((2,3,4,5-tetrafluoro-6-(trifluoromethyl)phenyl)sulfonyl)piperazin-1-yl)ethan-1-one] | – | – | – | b |
